Data: US5837479A, “Screening assays for inhibitors of mammalian prostaglandin H synthase-2” (priority 1995, dated 1998)
Like-named read-outs stand apart in the source and are kept apart here.

Legend:
[1] = test system: 2.8-kb PGHS mRNA (PGHS-1), human monocytes; format: cell-based
Method: (§1) FIGS. 3A-3B are a photographic depiction of autoradiographies obtained by Northern blotting monitoring the expression of the genes encoding griPGHS and the constitutive PGHS-1, as expressed in human monocytes, in response to interleukin-1 treatment, a known mediator of inflammation. Adherent human monocytes isolated from healthy donors were suspended in medium without serum at 1×10^6 cells/ml. One ml aliquots in 5 ml polypropylene tubes were incubated with loosened caps in 5% CO2 at 37° C. with occasional shaking. FIGS. 3A-3B are more fully described as follows:
(§2) Five μg was subjected to Northern blot analysis with the indicated probes.
(§3) Cycloheximide (25 μM) was added to one set of incubations 15 min prior to he addition of cytokine or hormone.
(§4) Poly-A enriched RNAs (2.5 μg) from C127 cells were fractionated by formaldehyde-agarose gel electrophoresis and transferred to a membrane (Duralon, Stratagene). Hybridization was carried out as previously described by O'Banion et al., 1991, J. Virol., 65:3481-3488, using the 5' 1.2 kb EcoR1 fragment of the 4.1 kb cDNA labeled with ^32 P by random priming as disclosed by Feinberg et al., 1983, Anal. Biochem., 132:6-13. The membrane was later rehybridized with a similarly labeled portion (1.6 kb 5' end) of the 2.8 kb ovine PGHS cDNA (Oxford Biomedical Research, Inc.), and an end-labeled 40-mer complimentary to β-tubulin (Oncor). RNA molecular weight markers (Life Technologies) were visualized by ethidium bromide staining. A similar analysis was performed on total RNA (5 µg/lane) isolated from human monocytes by the guanidinium-acid-phenolextraction method of Chomczynski et al., 1987, Anal. Biochem., 162:156-159.
(§5) Adherent human monocytes isolated from healthy donors as described by Roberts et al., 1978, J. Immunol, 121:1052-1058, were suspended in M199 medium without serum at 1×10^6 cells/ml. One ml aliquots in 5 ml polypropylene tubes were incubated with loosened caps in 5% CO2 at 37° C. with occasional shaking. […] Five μg RNA was subjected to Northern blot analysis as described by O'Banion et al., 1991, J. Biol. Chem., 34:23261-23267 with the indicated probes labeled by random priming (kit from Boehringer-Mannheim) to a specific activity >1×10^9 cpm/μg. […] Cycloheximide (25 μM; Sigma) was added to one set of incubations 15 min prior to the addition of cytokine or hormone.

[2] = test system: griPGHS mRNA (4.8-kb mRNA), human monocytes; format: cell-based; settings: for griPGHS mRNA increase relative to control: IL-1β 10 half-maximal units
Method: as §1, §2, §3, §4, §5

[3] = test system: C127 mouse fibroblasts (protein synthesis); experiment: inhibition of protein synthesis in C127 mouse fibroblasts; format: cell-based; settings: C127, 0.25 h, within 15 min
Description: C127 mouse fibroblasts were obtained from Peter Howley (NIH) and propagated in high glucose Dulbecco's modified Eagle's medium supplemented with 10% fetal bovine serum (HyClone Laboratories) without antibiotics. See, Lowy et al., 1978, J. Virol., 26:291-298. Cultures were monitored for mycoplasma contamination by Hoechst 33258 staining in accord with the procedure of Chen, 1977, Exp. Cell Res., 104:255-262.
Exponentially growing, subconfluent (60-80%) cell monolayers (35-mm plates) were labeled in Dulbecco's modified Eagle's medium without methionine (Life Technologies) plus 200 μCi/ml Tran^35 S-label (>1,000 Ci/mmol; ICN) for 15 or 30 min. In some cases, fresh fetal calf serum (10%) was present during the labeling period. Monolayers were rinsed twice with ice-cold Dulbecco's modified Eagle's medium (DMEM) with methionine prior to lysis in 200 μl of A8 buffer (9.5M urea, 2% (w/v) Nonidet P-40, 2% (w/v) ampholines (LKB, 1.6% pH range 5-8, 04. % pH range 3.5-10), 5% (w/v) 2-mercaptoethanol). Incorporation of label into proteins was determined by trichloroacetic acid precipitation. […] The calcium ionophore A23187 (Calbiochem) was used at a concentration of 5 μM from a 2.5 mM stock in ethanol. Cycloheximide (Sigma) was used at a concentration of 25 μM from a 100 X stock in water. This level inhibited protein synthesis by >97% within 15 min. […]

[4] = test system: 2.8-kb mRNA encoding PGHS-1; experiment: level of 2.8-kb PGHS-1 mRNA in C127 mouse fibroblasts; format: cell-based; settings: C127 cells
[5] = test system: 4-kb mRNA (PGHS-2); experiment: level of 4-kb PGHS-2 mRNA in C127 mouse fibroblasts; format: cell-based; settings: C127 cells
Description: Three of four potential N-glycosylation sites are conserved between the two molecules and there is particularly high similarity in the regions surrounding a putative axial heme-binding domain (amino acids 273-342) and the region around the presumed aspirin modified-serine^516 (amino acids 504-550). By far the largest difference in the two cDNAs is the presence of a 2.1 kb 3' untranslated region in the 4.1 kb cDNA. This region is rich in 5'-AUUUA-3' motifs that are associated with the decreased stability of many cytokine and protooncogene mRNAs. The presence of these motifs is consistent with the profound superinducibility of the 4.1 kb mRNA by cycloheximide, which is not observed for the 2.8 kb mRNA.

[6] = test system: human PGHS-2 (versus human PGHS-1); experiment: NSAID inhibition of human PGHS-2 activity in stably transformed COS cells (4B4), compared with human PGHS-1 cells (H17A5); format: cell-based; settings: 30 min preincubation, 15 min arachidonic acid; FIGS. 8A-8D and 9A-9D
Method: PGHS-1 and PGHS-2 cell lines (including 4B4 and H17A5) were exposed to various concentrations of NSAID for 30 min in serum-free DMEM. […] Controls consisted of no drug treatment and cells treated with the maximal concentrations of drug vehicles (1% methanol or ethanol). […] Cyclooxygenase activity was determined as described herein above.

[7] = test system: colorectal carcinoma; settings: several clinical trials; cited from earlier work
[8] = test system: preterm labor; settings: in vivo; cited from earlier work
[9] = test system: 72-74 kDa protein doublet, BALB/c 3T3 fibroblasts; settings: cited from earlier work
[10] = test system: PGHS-2 expression, astrocytes; settings: cultured murine and rat astrocytes; cited from earlier work
[11] = test system: cystic fibrosis lung disease; settings: high-dose, cystic fibrosis patients; cited from earlier work
[12] = test system: familial polyposis (colon polyps); settings: patients with familial polyposis; cited from earlier work
[13] = test system: COS cells; experiment: toxicity to COS cells; format: cell-based, monkey; settings: 800 μg/ml Geneticin (active component 657 μg/ml)
Method: Sixty-mm plates of 50% confluent COS-A2 (monkey-kidney) cells, which contain little or no cyclooxygenase activity were transfected with 1-2.5 μg of purified pRC/CMV;hPGHS-2 plasmid, pRC/CMV;hPGHS-1 plasmid or the PRC/CMV vector alone by a calcium phosphate precipitation method (Chen et al., 1987, Mol. Cell. Biol., 7:2745-2752. Plates were incubated at 35° C., 3% CO2 for 24 hr in normal media (Dulbecco's modified Eagle Media (DMEM)+10% fetal bovine serum). After two rinses with warm DMEM, plates were transferred to 37° C., 5% CO2 for an additional 24 hr. Selection was then started with normal media containing 800 μg/ml of Geneticin (active component G418, 657 μg/ml, Life Technologies), a concentration which is toxic for COS cells. […] Twelve to twenty-four colonies from each transfection were isolated using cloning cylinders. The majority of these survived continued G418 selection during clonal cell-line expansion.

C[C@@H]1C[C@@H]([C@H](O)CC2CC(=O)NC(=O)C2)C(=O)[C@@H](C)C1 [cycloheximide]
levels of 2.8-kb mRNA relative to β-tubulin ([1]; IL-1β, dexamethasone or cycloheximide treatment): not significantly altered | superinduction of 4.8-kb mRNA ([2]; cycloheximide 25 μM, added 15 min before cytokine or hormone): superinduction of the 4.8-kb mRNA was clearly evident | inhibition at 25 µM [3]: > 97% | change in 2.8-kb PGHS-1 mRNA level [4]: no change | accumulation of 4-kb mRNA [5]: accumulates to significant levels

CC(=O)Oc1ccccc1C(=O)O [aspirin]
levels of drug required for inhibition, PGHS-1 versus PGHS-2 cells [6]: different for the cells expressing PGHS-1 versus those expressing PGHS-2 | colon tumor growth and death [7]: decreased colon tumor growth and death

C[C@@H]1C[C@H]2[C@@H]3CCC4=CC(=O)C=C[C@]4(C)[C@@]3(F)[C@@H](O)C[C@]2(C)[C@@]1(O)C(=O)CO [dexamethasone]
level of 2.8-kb PGHS mRNA ([1]; 4 hr, normalized to β-tubulin): not affected | change in 2.8-kb PGHS-1 mRNA level [4]: no change

COc1ccc2c(c1)c(CC(=O)O)c(C)n2C(=O)c1ccc(Cl)cc1 [indomethacin]
levels of drug required for inhibition, PGHS-1 versus PGHS-2 cells [6]: different for the cells expressing PGHS-1 versus those expressing PGHS-2 | premature closure of the ductus arteriosus of the fetus [8]: raises concern with premature closure of the ductus arteriosus

platelet-derived growth factor
synthesis of 72-74 kDa protein doublet [9]: transiently increased

TNFα
regulation of PGHS-2 expression in astrocytes [10]: strongly up-regulated | time of peak PGHS-2 mRNA level [10]: 2 h

IL-1β: IL-1β (10 half-maximal units, Collaborative Research), a known mediator of inflammation
levels of 2.8-kb mRNA relative to β-tubulin [1]: not significantly altered | griPGHS mRNA increase relative to control ([2]; 4 hr): 2.5 fold | griPGHS mRNA increase relative to control ([2]; 12 hr): 14 fold | regulation of PGHS-2 expression in astrocytes [10]: strongly up-regulated | time of peak PGHS-2 mRNA level [10]: 2 h

CC(C)Cc1ccc(C(C)C(=O)O)cc1 (stereo not shown) [ibuprofen]
progression of lung disease [11]: slows the progression of lung disease

CC1=C(CC(=O)O)c2cc(F)ccc2/C1=C\c1ccc([S+](C)[O-])cc1 (stereo not shown) [Sulindac]
colon polyp regression [12]: colon polyp regression

CN[C@@H]1[C@@H](O)[C@@H](O[C@@H]2[C@@H](O)[C@H](O[C@H]3O[C@H]([C@@H](C)O)[C@@H](O)[C@H](O)[C@H]3N)[C@@H](N)C[C@H]2N)OC[C@]1(C)O [G418]
toxicity for COS cells [13]: toxic
